From paper PMC8305076, “Comprehensive Evaluation of Biological Effects of Pentathiepins on Various Human Cancer Cell Lines and Insights into Their Mode of Action” (International Journal of Molecular Sciences, 2021)
Read-outs that look alike come from different tables or passages of the source.

Key:
Test in all cases: MTT cell viability assay
Format in all cases: cell-based
A2780cis = conditions: Homo sapiens, 48 h
Method: (§1) Distinct MTT cell viability and crystal violet cell proliferation assays were performed to assess the cytotoxicity of the compounds 1–6 on 14 human cancer cell lines. In the viability assay, cells with intact mitochondria and thus active dehydrogenases are competent to convert MTT to the corresponding insoluble formazan. The formazan can be photometrically detected after solubilization and allows for indirect conclusions about the viability of the cells as an IC50 value. In the crystal violet assay, cells are stained by the binding of the dye to the chromatin, thus allowing for a quantification of biomass that remains adherent after a treatment in comparison with a control after a specific time. Potency is defined as the growth inhibitory concentration 50% (GI50).
(§2) In addition to performing the cell viability assay under normoxia (19% atmospheric oxygen), incubations were also conducted under hypoxic conditions, i.e., atmospheric oxygen levels of 1% during the treatment for 48 h. Hypoxia is a favorable condition of the tumor microenvironment that is connected with poor outcome. Therefore, the low oxygen condition mimics better the tumor environment. The biological effect of the pentathiepins under this condition provides insight into their dependency for oxygen, which has been postulated a key component in the proposed mechanism of action (Figure 3). Consistent with the proposed mechanism of action for five of the compounds, potency decreased under hypoxic conditions; in fact for 6, the half-maximal inhibitory concentration exceeded the highest tested concentration of 10 µM in four cell lines (Figure 6, Table S3). […] In contrast to the other compounds, in some cell lines, the cytotoxic effects of 1 were more pronounced under oxygen-reduced incubation conditions (Figure 6), indicating a tangential role of oxygen availability for this pentathiepin. Especially for the breast cancer cell line MCF-7, the cytotoxicity increased substantially, indicated by a decrease of the IC50 from >10.0 µM to about 1.0 µM.
(§3) The effect of the pentathiepins on the viability of the cell lines was assessed via an MTT assay, performed as previously described. Healthy and viable cells convert the yellow soluble 3-(4,5-dimethylthiazol-2-yl)-2,5-diphenyltetrazolium bromide to the insoluble purple corresponding formazan, which can be spectrophotometrically measured. For this assay, 5000 cells (1 250 for LCLC-103H) in 0.1 mL of medium were seeded per well of a 96-well plate and incubated at standard conditions for 24 h prior to treatment. A serial dilution of the test compounds was prepared in medium, covering final concentrations from 10.0 to 0.04 µM, and 0.1 mL of the working solution was added to each well in triplicate. After 48 h, 20 µL of a 2.5 mg/mL MTT in PBS solution was pipetted into each well and further incubated for 4 h at standard conditions. Thereafter, medium was replaced with 50 µL DMSO, and the plates were put on a shaker for 5 min and subsequently read at λ = 570 nm, with a SpectraMax 384plus (Molecular Devices, Sunnyvale, CA, USA). The cell viabilities of the treatment conditions were calculated in relation to a solvent control sample. The absolute IC50 was calculated via nonlinear regression followed by interpolation of the dose–response graphs in Prism 7 (GraphPad, San Diego, CA, USA). The IC90 was derived from the IC50 by using the slope factor of the dose–response graph with the tool QuickCalcs from GraphPad (GraphPad Software, San Diego, CA, USA).

Kyse-70 = conditions: Homo sapiens, 48 h
Method: as §1, §2, §3

PATU-8902 = conditions: Homo sapiens; for IC50: 48 h; for IC90: calculated via GraphPad QuickCalcs from MTT IC50 and slope factor
Method: as §1, §2, §3

HAP-1.KO.GPx1 = conditions: Homo sapiens; for IC50: 48 h; for IC90: calculated via GraphPad QuickCalcs from MTT IC50 and slope factor
Method: as §1, §2, §3

A-427 = conditions: Homo sapiens, 48 h
Method: as §1, §2, §3

RT-4 = conditions: Homo sapiens, 48 h
Method: as §1, §2, §3

DanG = conditions: Homo sapiens; for IC50: 48 h; for IC90: calculated via GraphPad QuickCalcs from MTT IC50 and slope factor
Method: as §1, §2, §3

Siso = conditions: Homo sapiens; for IC50: 48 h; for IC90: calculated via GraphPad QuickCalcs from MTT IC50 and slope factor
Method: as §1, §2, §3

A2780 = conditions: Homo sapiens; for IC50: 48 h; for IC90: calculated via GraphPad QuickCalcs from MTT IC50 and slope factor
Method: as §1, §2, §3

LCLC-103H = conditions: Homo sapiens, 48 h
Method: as §1, §2, §3

HAP-1 = conditions: Homo sapiens; for IC50: HAP1, 48 h; for IC90: HAP1, calculated via GraphPad QuickCalcs from MTT IC50 and slope factor
Method: as §1, §2, §3

RT-112 = conditions: Homo sapiens, 48 h
Method: as §1, §2, §3

YAPC = conditions: Homo sapiens; for IC50: 48 h; for IC90: calculated via GraphPad QuickCalcs from MTT IC50 and slope factor
Method: as §1, §2, §3

[1] = hypoxic (1% O2), read-out: IC50 MTT-H mean
[2] = normoxic (19% O2), read-out: IC50 MTT-N mean

Compound | IC50 (A2780cis; [1]) [nM] | IC50 (A2780cis; [2]) [nM] | IC50 (Kyse-70; [1]) [nM] | IC50 (Kyse-70; [2]) [nM] | IC50 (PATU-8902; [1]) [nM] | IC50 (PATU-8902; [2]) [nM] | IC90 (PATU-8902) [nM] | IC50 (HAP-1.KO.GPx1; [1]) [nM] | IC50 (HAP-1.KO.GPx1; [2]) [nM] | IC90 (HAP-1.KO.GPx1) [nM] | IC50 (A-427; [1]) [nM] | IC50 (A-427; [2]) [nM] | IC50 (RT-4; [1]) [nM] | IC50 (RT-4; [2]) [nM] | IC50 (DanG; [1]) [nM] | IC50 (DanG; [2]) [nM] | IC90 (DanG) [nM] | IC50 (Siso; [1]) [nM] | IC50 (Siso; [2]) [nM] | IC90 (Siso) [nM] | other results
CCOc1c2c(c3cnc4[nH]c(-c5ccc(OC)cc5)cc4n13)SSSSS2 [Compound 1, 11-Ethoxy-2-(4-methoxyphenyl)-3H-[1,2,3,4,5]pentathiepino[6′,7′:3,4]pyrrolo[1,2-a]pyrrolo[2,3-e]pyrazine] | 411 | 410 | 532 | 477 | 543 | 579 | 1220 | 428 | 358 | 550 | 285 | 349 | 522 | 1930 | 478 | 1110 | 1710 | 602 | 414 | 770 | IC50 (A2780; [1]): 443 nM; IC50 (A2780; [2]): 692 nM; IC90 (A2780): 1870 nM; IC50 (LCLC-103H; [1]): 552 nM; IC50 (LCLC-103H; [2]): 1420 nM; IC50 (HAP-1; [1]): 384 nM; IC50 (HAP-1; [2]): 398 nM; IC90 (HAP-1): 710 nM; IC50 (RT-112; [1]): 306 nM; IC50 (RT-112; [2]): 399 nM; IC50 (YAPC; [1]): 360 nM; IC50 (YAPC; [2]): 780 nM; IC90 (YAPC): 2470 nM
CCOc1c2c(c3ccc(C(=O)N4CCCCC4)cn13)SSSSS2 [Compound 2, (6-Ethoxy-[1,2,3,4,5]pentathiepino[6,7-a]indolizin-9-yl)(piperidinyl)methanone] | 637 | 652 | 2100 | 1580 | 3150 | 1720 | 6520 | 1190 | 644 | 1200 | 1080 | 1460 | 5900 | 1600 | 4350 | 1990 | 3060 | 2960 | 1380 | 2700 | IC50 (A2780; [1]): 804 nM; IC50 (A2780; [2]): 430 nM; IC90 (A2780): 1000 nM; IC50 (LCLC-103H; [1]): 1540 nM; IC50 (LCLC-103H; [2]): 1360 nM; IC50 (HAP-1; [1]): 847 nM; IC50 (HAP-1; [2]): 600 nM; IC90 (HAP-1): 1180 nM; IC50 (RT-112; [1]): 1720 nM; IC50 (RT-112; [2]): 1340 nM; IC50 (YAPC; [1]): 2230 nM; IC50 (YAPC; [2]): 1550 nM; IC90 (YAPC): 4260 nM
CCOc1c2c(c3ccc(C(=O)N4CCOCC4)cn13)SSSSS2 [Compound 3, (6-Ethoxy-[1,2,3,4,5]pentathiepino[6,7-a]indolizin-9-yl)(morpholino)methanone] | 316 | 206 | 2290 | 824 | 2340 | 1050 | 2480 | 911 | 368 | 800 | 959 | 785 | 2310 | 878 | 2660 | 1450 | 2540 | 2730 | 573 | 1230 | IC50 (A2780; [1]): 616 nM; IC50 (A2780; [2]): 135 nM; IC90 (A2780): 360 nM; IC50 (LCLC-103H; [1]): 820 nM; IC50 (LCLC-103H; [2]): 571 nM; IC50 (HAP-1; [1]): 657 nM; IC50 (HAP-1; [2]): 263 nM; IC90 (HAP-1): 620 nM; IC50 (RT-112; [1]): 1470 nM; IC50 (RT-112; [2]): 1050 nM; IC50 (YAPC; [1]): 2370 nM; IC50 (YAPC; [2]): 1220 nM; IC90 (YAPC): 2240 nM
CCOc1c2c(c3ccc(C(=O)N(CC)CC)cn13)SSSSS2 [Compound 4, 6-Ethoxy-N,N’-diethyl-[1,2,3,4,5]pentathiepino[6,7-a]indolizine-9-carboxamide] | 544 | 399 | 3600 | 976 | 1270 | 823 | 6000 | 1180 | 322 | 640 | 1190 | 1090 | 2220 | 1310 | 4460 | 1650 | 2710 | 4240 | 934 | 1930 | IC50 (A2780; [1]): 799 nM; IC50 (A2780; [2]): 213 nM; IC90 (A2780): 610 nM; IC50 (LCLC-103H; [1]): 827 nM; IC50 (LCLC-103H; [2]): 674 nM; IC50 (HAP-1; [1]): 832 nM; IC50 (HAP-1; [2]): 263 nM; IC90 (HAP-1): 510 nM; IC50 (RT-112; [1]): 1780 nM; IC50 (RT-112; [2]): 1200 nM; IC50 (YAPC; [1]): 2210 nM; IC50 (YAPC; [2]): 1150 nM; IC90 (YAPC): 3700 nM
CCOc1c2c(c3ccc(C(=O)N4CCN(C(=O)c5ccc(F)cc5)CC4)cn13)SSSSS2 [Compound 5, (6-Ethoxy-[1,2,3,4,5]pentathiepino[6,7-a]indolizin-9-yl)(4-(4-fluorobenzoyl)piperazinyl)methanone] | 449 | 308 | 1520 | 826 | 1560 | 1200 | 2570 | 912 | 413 | 720 | 834 | 906 | 1740 | 716 | 1620 | 1180 | 2050 | 1850 | 794 | 1470 | IC50 (A2780; [1]): 588 nM; IC50 (A2780; [2]): 259 nM; IC90 (A2780): 510 nM; IC50 (LCLC-103H; [1]): 677 nM; IC50 (LCLC-103H; [2]): 800 nM; IC50 (HAP-1; [1]): 661 nM; IC50 (HAP-1; [2]): 270 nM; IC90 (HAP-1): 490 nM; IC50 (RT-112; [1]): 1120 nM; IC50 (RT-112; [2]): 1080 nM; IC50 (YAPC; [1]): 1520 nM; IC50 (YAPC; [2]): 1360 nM; IC90 (YAPC): 2200 nM
CCOc1c2c(c3ccc(C(=O)N4CCN(S(=O)(=O)c5ccc(C)cc5)CC4)cn13)SSSSS2 [Compound 6, (6-Ethoxy-[1,2,3,4,5]pentathiepino[6,7-a]indolizin-9-yl)(4-tosylpiperazinyl)methanone] | 1720 | 1510 | > 10000 | 1950 | > 10000 | 2980 | 7580 | 1840 | 778 | 1460 | 1390 | 1790 | 5050 | 1550 | > 10000 | 2180 | 4940 | > 10000 | 3260 | 5070 | IC50 (A2780; [1]): 2110 nM; IC50 (A2780; [2]): 891 nM; IC90 (A2780): 2390 nM; IC50 (LCLC-103H; [1]): 2530 nM; IC50 (LCLC-103H; [2]): 2820 nM; IC50 (HAP-1; [1]): 1320 nM; IC50 (HAP-1; [2]): 722 nM; IC90 (HAP-1): 1460 nM; IC50 (RT-112; [1]): > 10000 nM; IC50 (RT-112; [2]): 3410 nM; IC50 (YAPC; [1]): 3720 nM; IC50 (YAPC; [2]): 5170 nM; IC90 (YAPC): 17900 nM
